Measured values as given in patent US10550379B2, “Degron fusion constructs and methods for controlling protein production” (THE BOARD OF TRUSTEES OF THE LELAND STANFORD JUNIOR …, priority 2015, dated 2020).
“Also recorded” adds a separate entry of the source. Peptide text beside a SMILES is read from it. * marks the point of attachment. Cbz = O=C(OCc1ccccc1)*

Assays:
YFP-NS3pro-NS4A = test: degradation pathway of YFP-NS3pro-NS4A in HeLa cells; format: cell-based; details: ASV 1 μM, 18 to 24 hours post-transfection, MG132 10 μM, bortezomib 66 nM, chloroquine 100 μM, bafilomycin-A1 200 nM
Excerpt: FIGS. 8A-8D show characterization of a degron contained in NS3pro-NS4A. […] The hydrophobic N-terminal of NS4A then inserts into the membrane (right). Elements are numbered from N-terminus to C-terminus to clarify order of linkage. […] Removal of the NS3 helicase domain may expose hydrophobic residues in the helicase C-terminus and prevent cleavage at the NS3/4A site, preventing membrane insertion of NS4A. Models were generated using PDB file 1CU1. […] HeLa cells expressed YFP (FIG. 8C) or PSD95 (FIG. 8D) fused to NS3pro-NS4A (wt), or the degron-disrupted mutant (GGS). From 18 to 24 hours post-transfection, cells were treated with ASV (1 μM) and degradation inhibitors (MG, MG132 10 μM; BTZ, bortezomib 66 nM; CHQ, chloroquine 100 μM; BAF, bafilomycin-A1 200 nM). This short time window was used to avoid toxicity by degradation inhibitors. Final DMSO concentration was 0.23% (v/v) for all conditions in (FIG. 8C) and 0.33% for all conditions in (FIG. 8D).
To determine which cellular proteolytic pathways were responsible for degrading NS3pro-NS4A fusions, we examined the effect of inhibiting proteasomes or autophagosomes. We allowed cells expressing YFP-NS3pro-NS4A to produce uncleaved YFP-NS3pro-NS4A in asunaprevir while applying inhibitors of proteasome or autophagosome degradation (FIG. 8C).
Chemical Reagents. […]. Further serial dilutions were performed for the dose-dependency experiment. For long-term CLV and ASV incubations, drug was applied simultaneously with transfection media or 1-2 hours after transfection. MG132 (Sigma) was dissolved in DMSO for a 1000× working stock of 10 mM. Bortezomib (Adooq Biosci.) was dissolved in DMSO for a 500× working stock of 33 μM. Chloroquine diphosphate salt (Sigma) was dissolved in H2O for a 1000× (100 mM) working stock. Bafilomycin A1 (Santa Cruz) was dissolved in DMSO for a 500× (100 μM) working stock. Azidohomoalanine (AHA) (Click-IT, Invitrogen) was dissolved in DMSO for a 500× working stock of 25 mM. Alkyne-PEG4-biotin (Invitrogen) was dissolved in DMSO for a 100× working stock of 4 mM. L-cystine dihydrochloride (Sigma) was dissolved in H2O pH 2.0 for a working stock of 0.1 M.

SMASh-YFP or YFP-SMASh [1] = test: drug repression of SMASh-tagged YFP in budding yeast; format: cell-based, S. cerevisiae; details: 24 hours, SD media
Excerpt: When expressed in yeast from an episomal gene, we found the C-terminal SMASh tag with a protease cleavage site of sequence DEMEEC/S was able to confer drug repression on YFP expression, similarly to its performance in mammalian cells (FIG. 5A, lane 4-6). However, the N-terminal SMASh tag and fast-cleaving site (EDVVPC/S) used in mammalian cells allowed leaky expression of YFP in yeast in the presence of drug (data not shown). […] . […] To the best of our knowledge, SMASh is the first method that uses a single genetic element to impose drug control over the expression of specific proteins in yeast.
Yeast Strains and Cell Growth.

SMASh-YFP or YFP-SMASh [2] = test: SMASh tag at either terminus of YFP in HEK293 cells; format: cell-based; details: HEK293, 24 hours
Excerpt: NS3 protease sequence (light gray), sequence derived from NS3 helicase (dark gray), and sequence derived from NS4A (medium gray) are shown. NS5A/5B-based protease substrate site is in dark gray. […] DMSO was used as vehicle control. β-actin served as a loading control. […] Scale bar, […].

[3] = tested on: panel of cellular proteases; details: 1.5 μM; cited from earlier work
[4] = in vivo, po; cited from earlier work
YSH1-SMASh yeast = test: yeast spotting assay, YSH1-SMASh knock-in; details: ASV (10 μM), 48 hours
SEC14-SMASh yeast = test: yeast spotting assay, SEC14-SMASh knock-in; details: ASV (3 μM), 48 hours
MeV-EGFP-P-SMASh = test: drug control of MeV-EGFP-P-SMASh in infected Vero cells
MeV-EGFP = test: drug effect on parental MeV-EGFP in infected Vero cells; details: presence of asunaprevir, 72 hours
SMASh-Arc = test: optimization of N-terminal SMASh tag on Arc in HEK293 cells, immunoblot; details: HEK293, 24 hours
[5] = tested on: AID target protein expressed from the ADH promoter; details: cited from earlier work
GluRIIA-CFP-SMASh = GluRIIA-CFP-SMASh (Hepatitis C virus genotype 1a, UniProt P27958, T1080A/T1100M/T1173A); format: cell-based, Drosophila; details: HEK293, 24 hours
HEK293 cells = test: protein half-life by SMASh shutoff, immunoblotting and mathematical model

CC(C)C[C@@H](C=O)NC(=O)[C@H](CC(C)C)NC(=O)[C@H](CC(C)C)NC(=O)OCc1ccccc1 [MG132] (Cbz-Leu-Leu-Leu-aldehyde)
YFP-NS3pro-NS4A protein levels (YFP-NS3pro-NS4A): modestly increased

C=C[C@@H]1C[C@]1(NC(=O)[C@@H]1C[C@@H](Oc2ncc(OC)c3ccc(Cl)cc23)CN1C(=O)[C@@H](NC(=O)OC(C)(C)C)C(C)(C)C)C(=O)NS(=O)(=O)C1CC1 [asunaprevir]
YFP expression, episomal, GPD promoter (SMASh-YFP or YFP-SMASh [1]; 3 μM asunaprevir): undetectable levels; also recorded: completely suppressed | YFP expression, YFP-SMASh integrated into yeast chromosome, GPD promoter (SMASh-YFP or YFP-SMASh [1]; ASV, immunoblot): shutoff | YFP fluorescence in living cells (SMASh-YFP or YFP-SMASh [2]): nearly undetectable | cleaved and full-length YFP protein, immunoblot (SMASh-YFP or YFP-SMASh [2]; N-terminal or C-terminal fusions): significantly reduced | activity against a panel of cellular proteases [3]: no activity | concentration that can be maintained in plasma and organs for hours [4]: 150 nM | growth of YSH1-SMASh yeast (YSH1-SMASh yeast): suppressed | growth of SEC14-SMASh yeast (SEC14-SMASh yeast): complete growth inhibition | suppression of EGFP fluorescence compared to the untreated case (MeV-EGFP-P-SMASh; 3 μM ASV, 3 days post-transfection (so in the source), Vero cells): 97.3% | P production in virus-infected cells, immunoblotting (MeV-EGFP-P-SMASh; presence of asunaprevir): efficiently inhibited | EGFP expression and formation of syncytia (MeV-EGFP-P-SMASh; presence of asunaprevir, Vero cells, 72 hours): completely abolished | EGFP expression and formation of syncytia by parental virus (MeV-EGFP): unaffected | Arc protein suppression, 6-aa linker with the NS5A/5B substrate (SMASh-Arc): complete protein suppression | Arc protein suppression, 18-aa linker with the NS5A/5B substrate (SMASh-Arc): incomplete

O=C(O)Cc1c[nH]c2ccccc12 [auxin]
concentration required for AID to degrade a target protein [5]: 1000 µM

CO/C1=C\C(C)=C\[C@@H](C)[C@@H](O)[C@@H](C)C/C(C)=C/C=C/[C@H](OC)[C@@H]([C@@H](C)[C@@H](O)[C@H](C)[C@@]2(O)C[C@@H](O)[C@H](C)[C@@H](C(C)C)O2)OC1=O [bafilomycin A1]
YFP-NS3pro-NS4A protein levels (YFP-NS3pro-NS4A): modestly increased

CC(C)C[C@H](NC(=O)[C@H](Cc1ccccc1)NC(=O)c1cnccn1)B(O)O [bortezomib]
YFP-NS3pro-NS4A protein levels (YFP-NS3pro-NS4A): modestly increased

CCN(CC)CCCC(C)Nc1ccnc2cc(Cl)ccc12 (centres unmarked) [chloroquine]
YFP-NS3pro-NS4A protein levels (YFP-NS3pro-NS4A): modestly increased

COc1ccc2c(O[C@@H]3C[C@H]4C(=O)N[C@]5(C(=O)O)C[C@H]5/C=C\CCCCC[C@H](NC(=O)OC5CCCC5)C(=O)N4C3)cc(-c3csc(NC(C)C)n3)nc2c1 [ciluprevir]
GluRIIA expression (GluRIIA-CFP-SMASh): shutoff

CYP21A2: short-lived protein, released from CYP21A2-SMASh by cleavage
acceleration of degradation by SMASh (HEK293 cells): 9 fold | decay rate constant kdeg (HEK293 cells): 8.67e-05 s⁻¹ | production rate constant ksyn (HEK293 cells; 24-28 hours post-transfection): 0.438 h⁻¹
